Data reported in US20090214600A1, “METHODS AND COMPOSITIONS FOR GASTRIC RESISTANT ORAL FORMULATIONS FOR INTESTINAL DELIVERY” (priority 2008, published 2009).
Where “and” joins values, the source holds several entries; their conditions need not be identical. Equal values may be shown once. Read-outs that look alike come from different tables or passages of the source.

Experiments:
[1] = cited from earlier work
[2] = Rabbit plasma Ceftriaxone concentration after IV administration (control); format: in vivo
[3] = single dose IV, 1.0 g, cited from earlier work
[4] = in vivo; cited from earlier work
[5] = Rabbit plasma Ceftriaxone concentration after oral administration of oral formulations (HPLC); format: in vivo; conditions: oral formulation, 40-80 mg Ceftriaxone, one line per animal (001-005)
Procedure: Oral Ceftriaxone formulations were administered to rabbit test subjects through a formulation delivery tube to permit oral administration, illustrative of the same absorption processes as the human stomach and intestines. Rabbits were dosed at a Ceftriaxone load of 40-80 mg depending upon body weight. Rabbits were dosed with all five oral Ceftriaxone formulations and absorption data collected by HPLC analysis of plasma Ceftriaxone concentrations from the heparinized rabbit plasma specimen. Blood draws were collected at pre-determined intervals of time, spun down to separate serum, and serum was removed and frozen prior to delivery to Clinical Pathology Laboratories in Oklahoma City, Okla.

[6] = single dose IM, 1.0 g, cited from earlier work

Compound: CO/N=C(\C(=O)N[C@@H]1C(=O)N2C(C(=O)O)=C(CSc3nc(=O)c(=O)[nH]n3C)CS[C@H]12)c1csc(N)n1 [Ceftriaxone, Ceftriaxone sodium]
- solubility in ethanol ([1]; ethanol): slightly soluble
- solubility in methanol ([1]; methanol): sparingly
- solubility in water ([1]; water): readily soluble
- Plasma Concentration of Ceftriaxone Over Time After IV Administration ([2]; animal 006, 0.00 Hours): BLQ (BLQ = Below Limit of Quantitation (<1.00 mcg/mL))
- concentration at 0.5 h ([2]; animal 006, 0.5 Hours, read-out: Plasma Concentration of Ceftriaxone Over Time After IV Administration): 198 µg/mL
- concentration at 1 h ([2]; animal 006, 1.0 Hours, read-out: Plasma Concentration of Ceftriaxone Over Time After IV Administration): 136 µg/mL
- concentration at 2 h ([2]; animal 006, 2.0 Hours, read-out: Plasma Concentration of Ceftriaxone Over Time After IV Administration): 90.8 µg/mL
- concentration at 4 h ([2]; animal 006, 4.0 Hours, read-out: Plasma Concentration of Ceftriaxone Over Time After IV Administration): 36.4 µg/mL
- concentration at 6 h ([2]; animal 006, 6.0 Hours, read-out: Plasma Concentration of Ceftriaxone Over Time After IV Administration): 27.3 µg/mL
- Plasma Concentrations ([3]; 0.5 hr): 151 µg/mL
- Plasma Concentrations ([3]; 1 hr): 111 µg/mL
- Plasma Concentrations ([3]; 2 hr): 88 µg/mL
- Plasma Concentrations ([3]; 4 hr): 67 µg/mL
- Plasma Concentrations ([3]; 6 hr): 53 µg/mL
- Plasma Concentrations ([3]; 8 hr): 43 µg/mL
- Plasma Concentrations ([3]; 12 hr): 28 µg/mL
- Plasma Concentrations ([3]; 16 hr): 18 µg/mL
- Plasma Concentrations ([3]; 24 hr): 9 µg/mL
- dose excreted as unchanged drug in the urine [4]: 33-67%
- Study Sample Concentration ([5]; 0.00 Hours): BLQ (BLQ = Below Limit of Quantitation (<1.00 mcg/mL))
- Study Sample Concentration ([5]; 0.5 Hours): 40.194 µg/mL and 31.84 µg/mL and 110.88 µg/mL and 143.15 µg/mL and 35.69 µg/mL
- Study Sample Concentration ([5]; 1.0 Hours): 27.41 µg/mL and 21.71 µg/mL and 75.60 µg/mL and 97.60 µg/mL and 24.33 µg/mL
- Study Sample Concentration ([5]; 2.0 Hours): 18.27 µg/mL and 14.47 µg/mL and 50.40 µg/mL and 65.07 µg/mL and 16.22 µg/mL
- Study Sample Concentration ([5]; 4.0 Hours): 7.31 µg/mL and 5.79 µg/mL and 20.16 µg/mL and 26.03 µg/mL and 6.44 µg/mL
- Study Sample Concentration ([5]; 6.0 Hours): 5.48 µg/mL and 4.34 µg/mL and 15.12 µg/mL and 19.52 µg/mL and 4.87 µg/mL
- Plasma Concentrations ([6]; 0.5 hr): 40 µg/mL
- Plasma Concentrations ([6]; 1 hr): 68 µg/mL
- Plasma Concentrations ([6]; 2 hr): 76 µg/mL
- Plasma Concentrations ([6]; 4 hr): 68 µg/mL
- Plasma Concentrations ([6]; 6 hr): 56 µg/mL
- Plasma Concentrations ([6]; 8 hr): 44 µg/mL
- Plasma Concentrations ([6]; 12 hr): 29 µg/mL
